{"source": "patent US9586963B2", "about": "(GENFIT, priority 2011, dated 2017)", "biological_target": "T1, Rev-Erb alpha (Homo sapiens, UniProt P20393)", "T1 sequence (P20393 284-614 limits assumed)": "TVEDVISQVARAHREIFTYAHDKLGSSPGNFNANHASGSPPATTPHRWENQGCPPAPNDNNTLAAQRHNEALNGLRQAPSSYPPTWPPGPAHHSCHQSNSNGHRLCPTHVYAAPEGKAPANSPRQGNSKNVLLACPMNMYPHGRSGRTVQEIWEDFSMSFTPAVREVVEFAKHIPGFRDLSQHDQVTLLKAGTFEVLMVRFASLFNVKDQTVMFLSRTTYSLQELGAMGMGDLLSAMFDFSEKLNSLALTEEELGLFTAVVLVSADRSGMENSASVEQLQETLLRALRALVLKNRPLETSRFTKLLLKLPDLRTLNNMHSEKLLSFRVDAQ", "assay": "M2H (mammalian two-hybrid) cellular activation assay of Rev-Erb alpha", "type": "cell-based", "conditions": "M2H assay, HEK293 cells; for pEC50: Gal4-Rev-Erb alpha / VP16-NCoR, luciferase reporter; for Emax: relative to DMSO, at the tested dose, read-out: TOP activation", "protocol": "In this system, Rev-Erb alpha or Rev-Erb beta is expressed as a fusion to the Gal4 DNA-binding domain and the cofactor NCoR is expressed as a fusion to the activation domain of the Herpes Simplex Virus tegument protein VP16. These fusion proteins were included in plasmids at a concentration of 1 μg/μL. The pBS-SK+ vector was added to the preparation to adjust the DNA quantity to a fixed value for each condition.\nThe transfection mix (Jet-PEI protocol, Polyplus transfection) comprised: • 3 mL of Jet PEI Mix (180 μL Jet-Pei and NaCl at 150 mM) and • 3 mL of the DNA Mix or of the DNA Mix control (wherein the Gal4-Rev-Erb alpha plasmid was replaced by a pGal4phi plasmid).\nDNA Mix comprised 1.2 mL of DNA and 1.8 mL of NaCl at 150 mM with, in a T225 flask: • 90 ng of Gal4-Rev-Erb alpha, or 90 ng of Gal4-Rev-Erb beta, • 4500 ng of VP16-NCoR, • 27000 ng of Gal4-RE and • 13410 ng of pBS-SK+. Cells\nHEK293 cells were cultured in DMEM (Invitrogen 41965) comprising 10% FBS, P/S, 1% glutamine, 1% pyruvate (Invitrogen 11360) and 1% amino acids (Invitrogen 11140). Cells were then batch co-transfected with plasmid vectors (described in the table above) using as Jet-PEI as reagent (Polyplus) following the protocol specified below.\nThe 6 mL-transfection mix was transferred in a T225 flask. HEK293 cells were then added at a concentration of 12 Millions of cells for 54 mL of medium (DMEM comprising 10% FBS and 1% P/S). Cells incubated over-night at 37° C. and under 5% CO2.\nThis cell-based assay is performed using 384-well Greiner white plates (Reference 781080). After the incubation, cells were rinsed with PBS, trypsinized, centrifuged and resuspended in free-serum DMEM without phenol red (Invitrogen 31053). Cells were counted and adjusted to 0.5 Million per mL and plated at a concentration of 10,000 cells in 20 μL per well. They were incubated a minimum of 4 hours at 37° C. under 5% CO2. Cells were treated with 20 μL of the compound to analyze (concentration of 2× diluted in DMEM without FBS containing a maximum of 1% DMSO) and incubated over-night (18 hours, 37° C. and 5% CO2). Each compound has been tested at 6 different concentrations to depict a dose-effect allowing the measure of biochemical parameters such as EC50 and TOP activation (%).\nCells were incubated 30 minutes with 40 μL/well of Steady Glow (Promega) and luminescence was read with TECAN Genios Pro (100 ms/w). Four experiments were carried out for each compound.\nEach compound has been tested at 6 different concentrations to depict a dose-effect allowing the measure of biochemical parameters such as EC50 and TOP activation (%).\nThe mammalian two-hybrid system (M2H) assay consists herein in studying the ability of compounds according to the invention to activate Rev-Erbalpha in cells and thus modulate the interaction with its corepressor. The interaction of the two proteins is assessed with the help of the Luciferase reporter gene. HEK293 cells were transfected with two gene constructions: Gal4-RE VP16-NCoR and Gal4-Rev-Erbalpha or with Gal4-RE, sVP16-NCoR and Gal4-Rev-Erb beta.\nThe ability of compounds according to the invention of activating Rev-Erbalpha alpha or Rev-Erb beta was assessed in the described cell-based assay. EC50 and TOP activation (%) were measured.", "note": "pEC50: −log10 of the molar value. Where a name gives a salt, the structure may show the parent alone."}
{"smiles": "FC(F)(F)c1ccc(-c2cscn2)c(Oc2ccc3nnc(Cl)n3n2)c1", "note": "[Cpd.4-106, 3-chloro-6-(2-(thiazol-4-yl)-5-(trifluoromethyl)phenoxy)-[1,2,4]triazolo[4,3-b]pyridazine]", "values": [{"measurement": "pEC50", "result": "5.22 to 6.00"}]}
{"smiles": "OCc1ccc(-c2ccccc2)c(Oc2ccc3nnc(Cl)n3n2)c1", "note": "[Cpd.4-155, 3-chloro-6-(4-(hydroxymethyl)biphenyl-2-yloxy)-[1,2,4]triazolo[4,3-b]pyridazine]", "values": [{"measurement": "pEC50", "result": "5.22 to 6.00"}]}
{"smiles": "Cc1noc(C)c1-c1ccccc1Oc1ccc2nnc(Cl)n2n1", "note": "[Cpd.4-109, 3-chloro-6-(2-(3,5-dimethylisoxazol-4-yl)phenoxy)-[1,2,4]triazolo[4,3-b]pyridazine]", "values": [{"measurement": "pEC50", "result": "< 5.22"}, {"measurement": "Emax", "result": "> 130", "unit": "%"}]}
{"smiles": "COC(=O)c1cccc(-c2cc(F)ccc2Oc2ccc3nnc(Cl)n3n2)c1", "note": "[Cpd.4-75]", "values": [{"measurement": "pEC50", "result": "5.22 to 6.00"}]}
{"smiles": "Clc1nnc2ccc(Oc3ccccc3-c3ccc4scnc4c3)nn12", "note": "[Cpd.4-110, 6-(2-(benzo[d]thiazol-5-yl)phenoxy)-3-chloro-[1,2,4]triazolo[4,3-b]pyridazine]", "values": [{"measurement": "pEC50", "result": "6.00 to 7.00"}]}
{"smiles": "Cc1ccc(-c2ccc(C(F)(F)F)cc2Oc2nn3c(Cl)nnc3cc2C)cn1", "note": "[Cpd.5-17, 3-chloro-7-methyl-6-(2-(6-methylpyridin-3-yl)-5-(trifluoromethyl)phenoxy)-[1,2,4]triazolo[4,3-b]pyridazine]", "values": [{"measurement": "pEC50", "result": "6.00 to 7.00"}]}
{"smiles": "Cc1ncccc1-c1ccc(C(F)(F)F)cc1Oc1cc(C)c2nnc(Cl)n2n1", "note": "[Cpd.5-19, 3-chloro-8-methyl-6-(2-(2-methylpyridin-3-yl)-5-(trifluoromethyl)phenoxy)-[1,2,4]triazolo[4,3-b]pyridazine]", "values": [{"measurement": "pEC50", "result": "6.00 to 7.00"}]}
{"smiles": "Cc1ccc(-c2ccc(C(F)(F)F)cc2Oc2nn3c(Cl)nnc3c3ccccc23)cn1", "note": "[Cpd.5-18, 3-chloro-6-(2-(6-methylpyridin-3-yl)-5-(trifluoromethyl)phenoxy)-[1,2,4]triazolo[3,4-a]phthalazine]", "values": [{"measurement": "pEC50", "result": "6.00 to 7.00"}]}
{"smiles": "Cn1cc(-c2ccc(C(F)(F)F)cc2Oc2ccc3nnc(Cl)n3n2)ccc1=O", "note": "[Cpd.4-86, 5-(2-(3-chloro-[1,2,4]triazolo[4,3-b]pyridazin-6-yloxy)-4-(trifluoromethyl)phenyl)-1-methylpyridin-2(1H)-one]", "values": [{"measurement": "pEC50", "result": "< 5.22"}, {"measurement": "Emax", "result": "> 130", "unit": "%"}]}
{"smiles": "NCc1ccc(Oc2ccc3nnc(Cl)n3n2)c(-c2ccccc2)c1", "note": "[Cpd.4-171, 3-chloro-6-(5-aminomethylbiphenyl-2-yloxy)-[1,2,4]triazolo[4,3-b]pyridazine, trifluoroacetic acid salt]", "values": [{"measurement": "pEC50", "result": "< 5.22"}, {"measurement": "Emax", "result": "> 130", "unit": "%"}]}
{"smiles": "NC(=O)c1cccc(-c2ccc(C(F)(F)F)cc2Oc2ccc3nnc(Cl)n3n2)c1", "note": "[Cpd.4-72, 3-chloro-6-(4-trifluoromethyl-3′-aminocarbonyl-biphenyl-2-yloxy)-[1,2,4]triazolo[4,3-b]pyridazine]", "values": [{"measurement": "pEC50", "result": "5.22 to 6.00"}]}
{"smiles": "Fc1ccc(Oc2ccc3nnc(Cl)n3n2)c(-c2ccccc2F)c1", "note": "[Cpd.4-121, 3-chloro-6-(2′,5-difluorobiphenyl-2-yloxy)-[1,2,4]triazolo[4,3-b]pyridazine]", "values": [{"measurement": "pEC50", "result": "6.00 to 7.00"}]}
{"smiles": "COc1ncc(-c2ccc(C(F)(F)F)cc2Oc2cc(C)c3nnc(Cl)n3n2)c(OC)n1", "note": "[Cpd.5-50, 3-chloro-6-(2-(2,4-dimethoxypyrimidin-5-yl)-5-(trifluoromethyl)phenoxy)-8-methyl-[1,2,4]triazolo[4,3-b]pyridazine]", "values": [{"measurement": "pEC50", "result": "5.22 to 6.00"}]}
{"smiles": "CCc1ncncc1-c1ccc(C(F)(F)F)cc1Oc1nn2c(Cl)nnc2cc1C", "note": "[Cpd.5-52, 3-chloro-6-(2-(4-ethylpyrimidin-5-yl)-5-(trifluoromethyl)phenoxy)-7-methyl-[1,2,4]triazolo[4,3-b]pyridazine]", "values": [{"measurement": "pEC50", "result": "5.22 to 6.00"}]}
{"smiles": "Cc1nc(-c2ccc(Oc3nn4c(Cl)nnc4cc3C)c(-c3ccccc3)c2)no1", "note": "[Cpd.5-65, 3-chloro-7-methyl-6-(4-(5-methyl-1,2,4-oxadiazol-3-yl)-2-(phenyl)phenoxy)-[1,2,4]triazolo[4,3-b]pyridazine]", "values": [{"measurement": "pEC50", "result": "5.22 to 6.00"}]}
{"smiles": "Oc1cncc(-c2ccc(C(F)(F)F)cc2Oc2ccc3nnc(Cl)n3n2)c1", "note": "[Cpd.4-96, 5-(2-(3-chloro-[1,2,4]triazolo[4,3-b]pyridazin-6-yloxy)-4-(trifluoromethyl)phenyl)pyridin-3-ol]", "values": [{"measurement": "pEC50", "result": "< 5.22"}, {"measurement": "Emax", "result": "> 130", "unit": "%"}]}
{"smiles": "CNc1ccc(-c2ccccc2)c(Oc2ccc3nnc(Cl)n3n2)c1", "note": "[Cpd.4-52, 3-chloro-6-(4-N-methylamino-biphenyl-2-yloxy)-[1,2,4]triazolo[4,3-b]pyridazine]", "values": [{"measurement": "pEC50", "result": "6.00 to 7.00"}]}
{"smiles": "CCCn1cc(-c2ccc(C(F)(F)F)cc2Oc2ccc3nnc(Cl)n3n2)ccc1=O", "note": "[Cpd.4-88, 5-(2-(3-chloro-[1,2,4]triazolo[4,3-b]pyridazin-6-yloxy)-4-(trifluoromethyl)phenyl)-1-propylpyridin-2(1H)-one]", "values": [{"measurement": "pEC50", "result": "< 5.22"}, {"measurement": "Emax", "result": "> 130", "unit": "%"}]}
{"smiles": "COc1ncc(-c2ccc(C(F)(F)F)cc2Oc2nn3c(Cl)nnc3cc2C)cn1", "note": "[Cpd.5-35, 3-chloro-7-methyl-6-((2-(2-methoxypyrimidin-5-yl))-5-(trifluoromethyl)phenoxy)-[1,2,4]triazolo[4,3-b]pyridazine]", "values": [{"measurement": "pEC50", "result": "5.22 to 6.00"}]}
{"smiles": "CN1CCN(Cc2ccc(Oc3ccc4nnc(Cl)n4n3)c(-c3ccccc3)c2)CC1", "note": "[Cpd.4-159, 3-chloro-6-(5-(4-methylpiperazin-1-ylmethyl)biphenyl-2-yloxy)-[1,2,4]triazolo[4,3-b]pyridazine]", "values": [{"measurement": "pEC50", "result": "< 5.22"}, {"measurement": "Emax", "result": "> 130", "unit": "%"}]}
{"smiles": "FC(F)(F)c1cccc(Oc2ccc3nnc(Cl)n3n2)c1-c1cccnc1", "note": "[Cpd.4-129, 3-chloro-6-(2-(pyridin-3-yl)-3-(trifluoromethyl)phenoxy)-[1,2,4]triazolo[4,3-b]pyridazine]", "values": [{"measurement": "pEC50", "result": "5.22 to 6.00"}]}
{"smiles": "NCc1ccc(-c2ccccc2)c(Oc2ccc3nnc(Cl)n3n2)c1", "note": "[Cpd.4-65, 3-chloro-6-(4-aminomethyl-biphenyl-2-yloxy)-[1,2,4]triazolo[4,3-b]pyridazine]", "values": [{"measurement": "pEC50", "result": "< 5.22"}, {"measurement": "Emax", "result": "> 130", "unit": "%"}]}
{"smiles": "COc1ncc(-c2ccc(C(F)(F)F)cc2Oc2cc(C)c3nnc(Cl)n3n2)cn1", "note": "[Cpd.5-34, 3-chloro-8-methyl-6-((2-(2-methoxypyrimidin-5-yl))-5-(trifluoromethyl)phenoxy)-[1,2,4]triazolo[4,3-b]pyridazine]", "values": [{"measurement": "pEC50", "result": "6.00 to 7.00"}]}
{"smiles": "N#Cc1ccc(-c2ccccc2)c(Oc2ccc3nnc(Cl)n3n2)c1", "note": "[Cpd.4-169, 3-chloro-6-(4-cyanobiphenyl-2-yloxy)-[1,2,4]triazolo[4,3-b]pyridazine]", "values": [{"measurement": "pEC50", "result": "6.00 to 7.00"}]}
{"smiles": "Oc1cccc(-c2ccc(C(F)(F)F)cc2Oc2ccc3nnc(Cl)n3n2)c1", "note": "[Cpd.4-37, 6-(3′-hydroxy-4-trifluoromethyl-biphenyl-2-yloxy)-3-chloro-[1,2,4]triazolo[4,3-b]pyridazine]", "values": [{"measurement": "pEC50", "result": "6.00 to 7.00"}]}
{"smiles": "FC(F)(F)c1ccc(-c2ccncc2)c(Oc2ccc3nnc(Cl)n3n2)c1", "note": "[Cpd.4-79, 3-chloro-6-(2-(pyridin-4-yl)-5-(trifluoromethyl)phenoxy)-[1,2,4]triazolo[4,3-b]pyridazine hydrochloride]", "values": [{"measurement": "pEC50", "result": "5.22 to 6.00"}]}
{"smiles": "FC(F)(F)c1ccc(-c2nccs2)c(Oc2ccc3nnc(Cl)n3n2)c1", "note": "[Cpd.4-105, 3-chloro-6-(2-(thiazol-2-yl)-5-(trifluoromethyl)phenoxy)-[1,2,4]triazolo[4,3-b]pyridazine]", "values": [{"measurement": "pEC50", "result": "5.22 to 6.00"}]}
{"smiles": "Fc1ccc(-c2ccccc2Oc2ccc3nnc(Cl)n3n2)c(F)c1", "note": "[Cpd.4-13, 6-(2′,4′-difluoro-biphenyl-2-yloxy)-3-chloro-[1,2,4]triazolo[4,3-b]pyridazine]", "values": [{"measurement": "pEC50", "result": "6.00 to 7.00"}]}
